What is called MIC is the lowest concentration that inhibits growth of the organism.

One assay has as its system Klebsiella aerogenes. The assay can be described thus: Antimicrobial activity against Enterobacter aerogenes MTCC 111 assessed as inhibition of visual microbial growth incubated for 24 hrs at 37 degC. The assay is classed as functional.
The test system of a further assay is Proteus vulgaris. The assay can be described thus: Antimicrobial activity against Proteus vulgaris MTCC 1771 assessed as inhibition of visual microbial growth incubated for 24 hrs at 37 degC. The assay is classed as functional.
In another assay the test system is Micrococcus luteus. The assay can be described thus: Antimicrobial activity against Micrococcus luteus MTCC 106 assessed as inhibition of visual microbial growth incubated for 24 hrs at 37 degC. The class given is functional. As to conditions: MTCC 106, 24 h.
Another assay concerns Shigella flexneri. The assay can be described thus: Antimicrobial activity against Shigella flexneri MTCC 1457 assessed as inhibition of visual microbial growth incubated for 24 hrs at 37 degC. The assay is classed as functional.
For assay [1], the system named is Staphylococcus aureus. Kind of assay: Antimicrobial activity against Staphylococcus aureus MTCC 96 assessed as inhibition of visual microbial growth incubated for 24 hrs at 37 degC. To be noted: MTCC 96, 24 h. The assay is classed as functional.
Assay [2] has as its system Staphylococcus aureus. Kind of assay: Antimicrobial activity against methicillin-resistant Staphylococcus aureus assessed as inhibition of visual microbial growth incubated for 24 hrs at 37 degC. The assay is classed as functional.
Another assay concerns Salmonella typhimurium. Kind of assay: Antimicrobial activity against Salmonella typhimurium MTCC 1251 assessed as inhibition of visual microbial growth incubated for 24 hrs at 37 degC. The class given is functional, Salmonella enterica subsp. enterica serovar Typhimurium. As to conditions: Salmonella enterica, MTCC 1251, 24 h.
In a further assay the test system is Malassezia pachydermatis. Kind of assay: Antimicrobial activity against Malassezia pachydermatis assessed as inhibition of visual microbial growth incubated for 48 to 72 hrs at 28 degC. The class given is functional.
A further assay concerns Klebsiella pneumoniae. Kind of assay: Antimicrobial activity against Klebsiella pneumoniae MTCC 109 assessed as inhibition of visual microbial growth incubated for 24 hrs at 37 degC. The assay is classed as functional. To be noted: MTCC 109, 24 h.
The next assay relates to Candida albicans. The assay can be described thus: Antimicrobial activity against Candida albicans MTCC 227 assessed as inhibition of visual microbial growth incubated for 48 to 72 hrs at 28 degC. The assay is classed as functional.

The source made the active and inactive calls. No cut-off for these calls is given here.

For `Cc1ccc(-c2csc(N3N=C(c4cccs4)CC3c3ccc4c(c3)OCO4)n2)cc1` (stereo not given), the MIC result in the assay on Klebsiella aerogenes was “inactive”. Also, the MIC is 500 µg/mL in the assay with Proteus vulgaris (MTCC 1771, 24 h); 500 µg/mL in the assay on Micrococcus luteus; 250 µg/mL in the assay with Shigella flexneri (MTCC 1457, 24 h); 250 µg/mL in the assay with Staphylococcus aureus [1]; 250 µg/mL with Staphylococcus aureus [2]; 125 µg/mL in the assay on Salmonella typhimurium. The MIC in the assay with Malassezia pachydermatis turned out to be 500 µg/mL; with Klebsiella pneumoniae it was 125 µg/mL; with Candida albicans, 125 µg/mL.

As to `N#Cc1cccc(-c2csc(N3N=C(c4cccs4)CC3c3cc4c(cc3Br)OCO4)n2)c1` (stereo not given), the MIC came to 62.5 µg/mL with Klebsiella aerogenes (MTCC 111, 24 h); 31.2 µg/mL with Proteus vulgaris (MTCC 1771, 24 h); 31.2 µg/mL in the assay with Micrococcus luteus; 62.5 µg/mL in the assay with Shigella flexneri (MTCC 1457, 24 h); 31.2 µg/mL with Staphylococcus aureus [1]; 62.5 µg/mL in the assay with Staphylococcus aureus [2]. In addition, the minimal inhibitory concentration (MIC) with Salmonella typhimurium came to 31.2 µg/mL; with Malassezia pachydermatis, 125 µg/mL; in the assay on Klebsiella pneumoniae, 62.5 µg/mL; in the assay with Candida albicans, 62.5 µg/mL.

For `N#Cc1ccc(-c2csc(N3N=C(c4cccs4)CC3c3cc4c(cc3Br)OCO4)n2)cc1` (stereo not given), the MIC in the assay on Klebsiella aerogenes (MTCC 111, 24 h) amounted to 125 µg/mL; in the assay on Proteus vulgaris (MTCC 1771, 24 h), 62.5 µg/mL; with Micrococcus luteus it was 62.5 µg/mL; with Shigella flexneri (MTCC 1457, 24 h) it was 125 µg/mL; in the assay with Staphylococcus aureus [1], 62.5 µg/mL; with Staphylococcus aureus [2] it was 125 µg/mL. Further, the minimal inhibitory concentration (MIC) with Salmonella typhimurium, in the assay with Malassezia pachydermatis, in the assay on Klebsiella pneumoniae and in the assay on Candida albicans was 125 µg/mL in each case.

Take `Fc1cc(-c2csc(N3N=C(c4cccs4)CC3c3cc4c(cc3Br)OCO4)n2)ccc1Cl` (stereo not given): the MIC in the assay with Klebsiella aerogenes (MTCC 111, 24 h) was 250 µg/mL; with Proteus vulgaris (MTCC 1771, 24 h) it was 125 µg/mL; in the assay on Micrococcus luteus it was 125 µg/mL; with Shigella flexneri (MTCC 1457, 24 h) it was 125 µg/mL; with Staphylococcus aureus [1], 125 µg/mL; in the assay on Staphylococcus aureus [2] it was 250 µg/mL. For the same compound, the MIC stood at 125 µg/mL with Salmonella typhimurium, 500 µg/mL in the assay on Malassezia pachydermatis, 125 µg/mL in the assay on Klebsiella pneumoniae and 500 µg/mL with Candida albicans.

In the case of `Clc1ccc(-c2csc(N3N=C(c4cccs4)CC3c3ccc4c(c3)OCO4)n2)cc1` (stereo not given), the MIC with Klebsiella aerogenes (MTCC 111, 24 h) worked out at 250 µg/mL; with Proteus vulgaris (MTCC 1771, 24 h), 125 µg/mL; with Micrococcus luteus, 250 µg/mL; in the assay with Shigella flexneri (MTCC 1457, 24 h), 250 µg/mL; in the assay on Staphylococcus aureus [1] it was 125 µg/mL; with Staphylococcus aureus [2], 250 µg/mL. Besides, the MIC in the assay with Salmonella typhimurium is 250 µg/mL; in the assay on Malassezia pachydermatis, 500 µg/mL; in the assay on Klebsiella pneumoniae it was 62.5 µg/mL; in the assay with Candida albicans, 500 µg/mL.

Consider `Clc1ccc(-c2csc(N3N=C(c4cccs4)CC3c3cc4c(cc3Br)OCO4)n2)cc1` (stereo not given), for which the MIC with Klebsiella aerogenes (MTCC 111, 24 h) worked out at 125 µg/mL; in the assay on Proteus vulgaris (MTCC 1771, 24 h), 250 µg/mL; in the assay with Micrococcus luteus, 31.2 µg/mL; in the assay with Shigella flexneri (MTCC 1457, 24 h), 125 µg/mL; in the assay on Staphylococcus aureus [1], 125 µg/mL; in the assay with Staphylococcus aureus [2], 62.5 µg/mL. In addition, the MIC was 62.5 µg/mL in the assay on Salmonella typhimurium, 125 µg/mL in the assay with Malassezia pachydermatis, 31.2 µg/mL with Klebsiella pneumoniae and 125 µg/mL in the assay on Candida albicans.

Take `Fc1ccc(-c2csc(N3N=C(c4cccs4)CC3c3cc4c(cc3Br)OCO4)n2)cc1` (stereo not given): the MIC in the assay with Klebsiella aerogenes (MTCC 111, 24 h) was 250 µg/mL; with Micrococcus luteus, 125 µg/mL; with Shigella flexneri (MTCC 1457, 24 h) it was 250 µg/mL; with Staphylococcus aureus [1], 250 µg/mL; in the assay with Salmonella typhimurium, 250 µg/mL; in the assay on Malassezia pachydermatis it was 500 µg/mL. In addition, the MIC in the assay with Klebsiella pneumoniae was found to be 500 µg/mL; with Candida albicans it was 250 µg/mL. In addition, the MIC result in the assay with Proteus vulgaris and in the assay with Staphylococcus aureus [2] was “inactive” each time.

On to `O=[N+]([O-])c1ccc(-c2csc(N3N=C(c4cccs4)CC3c3cc4c(cc3Br)OCO4)n2)cc1` (stereo not given), for which the MIC in the assay with Klebsiella aerogenes (MTCC 111, 24 h) was 250 µg/mL; in the assay with Proteus vulgaris (MTCC 1771, 24 h), 125 µg/mL; with Micrococcus luteus it was 125 µg/mL; with Shigella flexneri (MTCC 1457, 24 h), 250 µg/mL; in the assay on Staphylococcus aureus [1], 250 µg/mL; in the assay with Staphylococcus aureus [2], 62.5 µg/mL. Moreover, the MIC in the assay on Salmonella typhimurium amounted to 62.5 µg/mL; with Malassezia pachydermatis it was 500 µg/mL; in the assay on Klebsiella pneumoniae, 250 µg/mL; in the assay on Candida albicans, 125 µg/mL.

In the case of `Fc1cc(Cl)ccc1-c1csc(N2N=C(c3cccs3)CC2c2cc3c(cc2Br)OCO3)n1` (stereo not given), the MIC in the assay with Klebsiella aerogenes (MTCC 111, 24 h) was determined as 125 µg/mL; with Proteus vulgaris (MTCC 1771, 24 h), 62.5 µg/mL; in the assay with Micrococcus luteus, 125 µg/mL; with Shigella flexneri (MTCC 1457, 24 h), 62.5 µg/mL; in the assay on Staphylococcus aureus [1], 125 µg/mL; with Staphylococcus aureus [2], 62.5 µg/mL. Besides, the MIC in the assay with Salmonella typhimurium worked out at 31.2 µg/mL; with Malassezia pachydermatis it was 125 µg/mL; with Klebsiella pneumoniae it was 62.5 µg/mL; in the assay with Candida albicans it was 62.5 µg/mL.

On to `c1ccc(-c2csc(N3N=C(c4cccs4)CC3c3ccc4c(c3)OCO4)n2)cc1` (stereo not given), for which the MIC with Klebsiella aerogenes (MTCC 111, 24 h) stood at 250 µg/mL; in the assay with Proteus vulgaris (MTCC 1771, 24 h), 500 µg/mL; in the assay with Micrococcus luteus it was 250 µg/mL; in the assay on Shigella flexneri (MTCC 1457, 24 h) it was 500 µg/mL; with Staphylococcus aureus [1], 500 µg/mL; in the assay on Staphylococcus aureus [2], 500 µg/mL. The MIC in the assay on Salmonella typhimurium worked out at 250 µg/mL; with Malassezia pachydermatis it was 500 µg/mL; in the assay with Klebsiella pneumoniae, 500 µg/mL; in the assay with Candida albicans, 250 µg/mL.

Regarding `Fc1cc(-c2csc(N3N=C(c4cccs4)CC3c3ccc4c(c3)OCO4)n2)ccc1Cl` (stereo not given), the MIC is 125 µg/mL with Klebsiella aerogenes (MTCC 111, 24 h); 500 µg/mL with Proteus vulgaris (MTCC 1771, 24 h); 62.5 µg/mL with Micrococcus luteus; 125 µg/mL in the assay with Shigella flexneri (MTCC 1457, 24 h); 500 µg/mL in the assay with Staphylococcus aureus [1]; 250 µg/mL in the assay with Staphylococcus aureus [2]. For the same compound, the MIC was found to be 500 µg/mL in the assay on Salmonella typhimurium, 500 µg/mL in the assay with Malassezia pachydermatis, 250 µg/mL in the assay with Klebsiella pneumoniae and 125 µg/mL with Candida albicans.

As to `Fc1ccc(-c2csc(N3N=C(c4cccs4)CC3c3ccc4c(c3)OCO4)n2)cc1` (stereo not given), the MIC in the assay on Klebsiella aerogenes (MTCC 111, 24 h) worked out at 125 µg/mL; in the assay with Proteus vulgaris (MTCC 1771, 24 h), 500 µg/mL; in the assay with Micrococcus luteus it was 250 µg/mL; with Shigella flexneri (MTCC 1457, 24 h), 250 µg/mL; with Staphylococcus aureus [1], 500 µg/mL; in the assay with Staphylococcus aureus [2], 250 µg/mL. The MIC was found to be 500 µg/mL in the assay with Salmonella typhimurium, 250 µg/mL with Malassezia pachydermatis, 250 µg/mL in the assay with Klebsiella pneumoniae and 125 µg/mL with Candida albicans.

Turning to `Fc1ccccc1-c1csc(N2N=C(c3cccs3)CC2c2ccc3c(c2)OCO3)n1` (stereo not given), the MIC in the assay on Klebsiella aerogenes (MTCC 111, 24 h) was determined as 500 µg/mL; in the assay on Proteus vulgaris (MTCC 1771, 24 h) it was 500 µg/mL; in the assay with Micrococcus luteus it was 125 µg/mL; with Staphylococcus aureus [1], 250 µg/mL; in the assay on Staphylococcus aureus [2], 250 µg/mL; with Salmonella typhimurium it was 250 µg/mL. Further, the MIC with Malassezia pachydermatis, in the assay on Klebsiella pneumoniae and in the assay with Candida albicans was 500 µg/mL in each case. Further, in the assay with Shigella flexneri, the MIC entry is “inactive”.

Values taken from ChEMBL document CHEMBL3588812, “Thiophene and benzodioxole appended thiazolyl-pyrazoline compounds: Microwave assisted synthesis, antimicrobial and molecular docking studies” (2015).
